Earlier results, collected in US9534000B2, “Cytotoxic benzodiazepine derivatives and methods of preparation” (ImmunoGen, Inc., priority 2011, dated 2017).

Details: Phase I clinical evaluation

C=C1C[C@H]2C=Nc3cc(OCCCOc4cc5c(cc4OC)C(=O)N4CC(=C)C[C@H]4C=N5)c(OC)cc3C(=O)N2C1 [SJG-136]
DNA damage in circulating lymphocytes: noted at all doses
